The record followed here is patent US9242945B2, “Substituted 2-benzylidene-2H-benzo[b][1,4]thiazin-3(4H)-ones, derivatives thereof, and therapeutic uses thereof” (TEMPLE UNIVERSITY—OF THE COMMONWEALTH SYSTEM OF HIGHER …, priority 2011, dated 2016).

In one test the target is T1, CDK9 (Homo sapiens, UniProt P50750).
T1 construct: CDK9 (human full length protein; Invitrogen PV4335); purchased Invitrogen PV4335
Kind of test: CDK9 inhibition (32P-ATP kinase assay). In kind it is biochemical. Conditions: PDKtide substrate, 20 μM cold ATP. As to the method: The ability of Compound 42 to inhibit the activity of the kinase CDK9 was determined as follows. Twenty-five nanograms of CDK9 (human full length protein; Invitrogen PV4335) was diluted into kinase buffer (20 mM Tris pH 7.5, 10 mM MgCl2, 0.01% NP-40, 1 mM EGTA, 2 mM DTT) and incubated with varying concentrations of Compound 42 at room temperature for 30 minutes. The kinase reactions were initiated by the addition of 20 μM of CDK9/Cyclin K specific synthetic peptide substrate (PDKtide, P10-58, SignalChem), 20 μM cold ATP, and 20 μCi γ-32P-ATP. The reactions were incubated at 30° C. for 20 minutes and terminated by the addition of 0.5M o-Phosphoric acid. 10 μl of the reaction mixture was spotted on a P-30 Filtermat (PerkinElmer) and developed using autoradiography or phosphorimaging.

The next test deals with MDA.MB-231. Kind of test: Cancer cell cytotoxicity assay, MDA.MB-231. It counts as cell-based. To be noted: Homo sapiens; MDA.MB-231, Breast Cancer. As to the method:
(§1) The effect of the compounds of the invention on tumor cells was determined by the assay described by Latham et al., Oncogene 12:827-837 (1996). Tumor cells K562 (chronic myelogenous leukemia; leukemia cell line +ve for Bcr-Abl) or DU145 (prostate cancer) were plated in 12-well dishes at a cell density of 2.5×10^4 cells well. The plated cells were treated 24 hours later with a compound of the invention dissolved in DMSO at multiple concentrations ranging from 0.01 μM to 100 μM. The plates were examined 96 hours later under an inverted microscope, Olympus CK-2 using a 10× objective, and compound activity was noted by physical observation. When necessary, the total number of viable cells was determined by trypsinizing the wells and counting the number of viable cells, as determined by trypan blue exclusion, using a hemacytometer. Where “Lower” and “Upper” value are provided in Table 5, the IC50 was determined to be within that range. […]
(§2) The cytotoxicity of Compound 42, (Z)-6-((2,6-dichlorobenzyl)sulfonyl)-2-(4-hydroxy-3-nitrobenzylidene)-2H-benzo[b][1,4]thiazin-3(4H)-one, was determined according the assay method of Example 7 on the prostate (androgen dependent or independent), breast and pancreatic cancer cell lines listed in Table 6A, below, and the additional cell lines listed in Table 6B, below. […]

The next test concerns VCAP. Kind of test: Cancer cell cytotoxicity assay, VCAP. In kind it is cell-based. Conditions: Homo sapiens, Prostate Cancer. As to the method:
as §1, §2

A further test has as its system A549. Kind of test: Cancer cell cytotoxicity assay, A549. It counts as cell-based. To be noted: Homo sapiens; A549, Non-small cell lung cancer. The method, then:
as §1, §2

The subject of the next test is PC3. Nature of the test: Cancer cell cytotoxicity assay, PC3. It counts as cell-based. To be noted: Homo sapiens, PC-3; PC3, Prostate Cancer. The method, then: as §1, §2
For another test, the system named is U266B1. Nature of the test: Cancer cell cytotoxicity assay, U266B1. In kind it is cell-based. To be noted: U266B1, Multiple Myeloma. As to the method:
as §1, §2

For another test, the system named is Z138C. Kind of test: Cancer cell cytotoxicity assay, Z138C. It counts as cell-based. To be noted: Mantle cell lymphoma. As to the method: as §1, §2
The target in the next test is T2, CK2α2 (Homo sapiens, UniProt P19784).
T2 construct: CK2α2 (human full length protein; Invitrogen PV3624); purchased Invitrogen PV3624
T2 sequence (P19784 whole entry): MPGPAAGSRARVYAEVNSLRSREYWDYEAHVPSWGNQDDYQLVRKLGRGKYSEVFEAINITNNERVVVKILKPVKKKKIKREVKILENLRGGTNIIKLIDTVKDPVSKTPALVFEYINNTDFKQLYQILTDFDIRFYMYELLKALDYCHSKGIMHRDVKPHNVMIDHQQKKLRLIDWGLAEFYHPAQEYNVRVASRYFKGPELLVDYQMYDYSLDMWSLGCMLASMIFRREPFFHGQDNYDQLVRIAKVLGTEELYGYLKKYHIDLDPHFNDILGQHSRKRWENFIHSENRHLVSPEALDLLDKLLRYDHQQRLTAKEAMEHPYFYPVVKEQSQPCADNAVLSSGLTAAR
Nature of the test: Casein kinase 2 inhibition, CK2α2 subunit (32P-ATP kinase assay). It counts as biochemical. To be noted: 20 μM cold ATP; 30 min preincubation, 20 min at 30° C. The method, then: The ability of Compound 42 to inhibit the activity of casein kinase 2 (CK2) was determined as follows using the catalytic CK2 subunits CK2α and CK2α2. Two and one half nanograms of CK2α (human full length protein; Invitrogen PV3248), 2.5 ng of a CK2α form containing amino acids 3-339) or 10 ng of CK2α2 (human full length protein; Invitrogen PV3624) was diluted into kinase buffer (20 mM Tris pH 7.5, 10 mM MgCl2, 0.01% NP-40, 1 mM EGTA, 2 mM DTT) and incubated with varying concentrations of Compound 42 at room temperature for 30 minutes. Kinase reactions were initiated by the addition of 1 μg of CK2 substrate α-synuclein or 40 μM CK2 synthetic peptide substrate (AnaSpec, San Jose, Calif.), 20 μM cold ATP, and 20 μCi γ-^32P-ATP. The reactions were incubated at 30° C. for 20 minutes, terminated by the addition of 2× Laemmle sample buffer, boiled for 2 minutes, resolved by 12% acrylamide SDS-PAGE, and subjected to autoradiography.

T1 sequence (P50750 whole entry): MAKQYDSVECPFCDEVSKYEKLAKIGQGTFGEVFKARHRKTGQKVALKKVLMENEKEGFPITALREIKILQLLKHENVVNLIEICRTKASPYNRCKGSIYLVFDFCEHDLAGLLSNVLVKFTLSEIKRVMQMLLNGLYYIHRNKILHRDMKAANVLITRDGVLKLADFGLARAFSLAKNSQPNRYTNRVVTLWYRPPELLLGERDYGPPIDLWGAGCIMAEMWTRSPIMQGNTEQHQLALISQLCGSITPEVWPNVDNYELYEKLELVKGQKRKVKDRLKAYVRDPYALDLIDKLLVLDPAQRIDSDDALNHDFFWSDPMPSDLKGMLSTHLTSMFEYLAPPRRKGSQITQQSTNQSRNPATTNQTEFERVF
T1 sequence (O75909 whole entry partner): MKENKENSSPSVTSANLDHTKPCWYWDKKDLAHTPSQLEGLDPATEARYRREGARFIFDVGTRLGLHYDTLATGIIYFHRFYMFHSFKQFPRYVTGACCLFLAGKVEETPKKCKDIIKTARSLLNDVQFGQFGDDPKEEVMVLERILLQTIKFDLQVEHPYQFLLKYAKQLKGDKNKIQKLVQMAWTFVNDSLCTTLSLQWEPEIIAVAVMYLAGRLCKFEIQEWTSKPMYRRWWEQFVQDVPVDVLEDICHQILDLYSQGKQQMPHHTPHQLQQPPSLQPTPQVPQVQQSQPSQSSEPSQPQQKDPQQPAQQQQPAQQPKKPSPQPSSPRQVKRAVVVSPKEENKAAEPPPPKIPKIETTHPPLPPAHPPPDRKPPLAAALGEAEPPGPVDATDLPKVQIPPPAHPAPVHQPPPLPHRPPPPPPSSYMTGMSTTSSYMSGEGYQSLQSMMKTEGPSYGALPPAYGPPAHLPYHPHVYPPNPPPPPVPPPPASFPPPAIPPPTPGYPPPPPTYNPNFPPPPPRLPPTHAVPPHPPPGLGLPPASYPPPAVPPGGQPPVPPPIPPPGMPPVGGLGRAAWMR

In the case of `O=C1Nc2cc(S(=O)(=O)Cc3c(Cl)cccc3Cl)ccc2S/C1=C\c1ccc(O)c([N+](=O)[O-])c1` [Compound 42, (Z)-6-((2,6-dichlorobenzyl)sulfonyl)-2-(4-hydroxy-3-nitrobenzylidene)-2H-benzo[b][1,4]thiazin-3(4H)-one], the IC50 on CDK9 turned out to be 93.7 nM; against CK2α2 it was 83.1 nM. In addition, the GI50 is 120 nM in the test on MDA.MB-231; 180 nM in the test on VCAP; 160 nM in the test with A549; 160 nM in the test with PC3; 100 nM in the test with U266B1; 70 nM in the test on Z138C.
